Among the data in patent US12398111B2, “Triazine compounds and pharmaceutical use thereof” (Japan Tobacco Inc., priority 2014, dated 2025) are IC50 values, retold here.

The target of this assay is T1, human mPGES-1 (Homo sapiens, UniProt O14684).
T1 construct: made in house; host or cells: FreeStyle CHO-S cells (Chinese hamster ovary), transient transfection with pcDNA3.1(+)/human mPGES-1; microsome fraction used
T1 sequence (O14684 1-152): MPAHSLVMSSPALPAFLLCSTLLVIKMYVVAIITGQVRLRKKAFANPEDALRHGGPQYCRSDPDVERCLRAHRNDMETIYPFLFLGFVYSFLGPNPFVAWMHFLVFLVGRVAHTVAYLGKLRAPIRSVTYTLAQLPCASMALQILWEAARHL
The experiment in a line: Evaluation of human mPGES-1 enzyme inhibitory activity (PGE2 measured by HTRF, microsome fraction of CHO-S cells expressing human mPGES-1). The following applies: IC50 value; microsome fraction of CHO-S cells expressing human mPGES-1, PGE2 by HTRF. It is filed as biochemical. In short, it runs like this: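 Enzyme source: microsomes from CHO-S cells transfected with human mPGES-1 and cultured 48 hr, diluted to 5 μg/mL protein in reduced GSH (12.5 mmol/L KPB solution). Test articles were in 0.1 mol/L potassium phosphate pH 7.4, final DMSO 2% (v/v). PGE2 formed was quantified by HTRF.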
Consider `Oc1nc(-c2ccc(OCC3CC3)nc2)nc(-c2c(Cl)cccc2OCc2ccccc2)n1` [Example 2-93], for which 0.038 µM corresponded to half-maximal inhibition (IC50).
To `CC(O)c1ccc(Cl)c(-c2nc(O)nc(-c3ccc(C(F)(F)F)cc3)n2)c1` (stereo not drawn) [Example 1-18] belongs 0.114 µM; to `COc1c(CNC(C)=O)ccc(Cl)c1-c1nc(O)nc(-c2ccc(C(F)(F)F)cc2)n1` [Example 3-5], 0.341 µM.
To `CC1(C(=O)NCc2ccc(Cl)c(-c3nc(O)nc(-c4ccccc4)n3)c2)CCCCC1` [Example 1-52] belongs 0.0006 µM.
To `Oc1nc(-c2ccc(C#Cc3ccccc3)cc2)nc(-c2c(OCc3cccc(C(F)(F)F)n3)cccc2C(F)(F)F)n1` [Example 2-121] belongs 0.014 µM; to `Cc1cc(C)c(-c2nc(O)nc(-c3ccc(C(F)(F)F)cc3)n2)c(C)c1` [Example 3-1], 0.484 µM.
In the case of `CC1(COc2ccc(-c3nc(O)nc(-c4cc(CNC(=O)C(C)(C)C(F)(F)F)ccc4Cl)n3)cc2)CCC1` [Example 1-143], the IC50 (usually the point on the concentration scale where inhibition reaches its midpoint) is 0.001 µM.
To `CCCC(C)(C)C(=O)N(C)Cc1ccc(Cl)c(-c2nc(O)nc(-c3ccccc3)n2)c1` [Example 1-245] belongs 0.108 µM; to `CC(C)(C)OC(=O)NCc1ccc(Cl)c(-c2nc(O)nc(-c3ccc(C(F)(F)F)cc3)n2)c1` [Example 1-15], 0.0074 µM; to `CCCCOc1ccc(-c2nc(O)nc(-c3c(C)cccc3C)n2)cc1` [Example 2-70], 0.158 µM.
In the case of `COc1cccc(Cl)c1-c1nc(O)nc(-c2ccc(C(F)(F)F)cc2)n1` [Example 2-4], the IC50 amounted to 0.066 µM.
To `Cc1cc(C)cc(-c2nc(O)nc(-c3cc(CNC(=O)C(C)(C)C(F)(F)F)ccc3Cl)n2)c1` [Example 1-93] belongs 0.0007 µM; to `CC(C)(CC(F)(F)F)C(=O)NCc1ccc(Cl)c(-c2nc(O)nc(-c3ccc(OCC4CC4)cc3)n2)c1` [Example 1-166], 0.0011 µM.
To `Cc1cccc(C)c1-c1nc(O)nc(-c2ccccc2)n1` [Example 2-2] belongs 21.3 µM; to `CCCc1cc(-c2nc(O)nc(-c3cc(CNC(=O)C(C)(C)C(F)(F)F)ccc3Cl)n2)ccc1F` [Example 1-118], 0.0019 µM.
Then `Cc1cccc(C)c1-c1nc(O)nc(-c2ccc(OCC3CCCC3)cc2)n1` [Example 2-50], with 0.061 µM; and `CC(C)(C(=O)NCc1ccc(Cl)c(-c2nc(O)nc(-c3ccc(C#CC4CCCCC4)cc3)n2)c1)C(F)(F)F` [Example 1-191], with 0.015 µM.
With `COC(C)(C)C(=O)NCc1ccc(Cl)c(-c2nc(O)nc(-c3cccc(C(C)(C)C)c3)n2)c1` [Example 1-84], the half-inhibitory concentration (IC50) came to 0.0006 µM. This IC50 is about 25-fold lower than that of the compound before.
To `CCO[C@](C)(C(=O)N(C)Cc1ccc(Cl)c(-c2nc(O)nc(-c3ccccc3)n2)c1)C(F)(F)F` [Example 1-252] belongs 0.511 µM; to `Oc1nc(-c2ccc(C(F)(F)F)cc2)nc(-c2c(Cl)cccc2OCc2ccncc2)n1` [Example 2-61], 0.092 µM.
The compound `CO[C@](C)(C(=O)NCc1ccc(Cl)c(-c2nc(O)nc(-c3ccc(OCC(C)C)cc3)n2)c1)C(F)(F)F` [Example 1-123] displayed an IC50 of 0.0023 µM.
Then `CCCOc1ccc(-c2nc(O)nc(-c3cc(CN4CC(C)(C)C4=O)ccc3Cl)n2)cc1` [Example 1-158], with 0.012 µM.
For `Cc1cccc(C)c1-c1nc(O)nc(-c2ccc(OCC3CC3)cc2)n1` [Example 2-74], inhibition was half-maximal at 0.424 µM (IC50).
For `CN(Cc1ccc(Cl)c(-c2nc(O)nc(-c3ccccc3)n2)c1)C(=O)C1CCCC1` [Example 1-228], the IC50 was 0.672 µM.
To `CCC(C)(C)C(=O)N(C)Cc1ccc(Cl)c(-c2nc(O)nc(-c3ccccc3)n2)c1` [Example 1-231] belongs 0.045 µM; to `COC1CCC2(CC1)CN(Cc1ccc(Cl)c(-c3nc(O)nc(-c4ccccc4)n3)c1)C2=O` (single isomer, unassigned) [Example 1-267], 0.15 µM.
Then `Cc1cccc(C)c1-c1nc(O)nc(-c2ccc(OCC(C)(C)C)cc2)n1` [Example 2-58], with 0.145 µM; and `CC(C)(C(=O)NCc1ccc(Cl)c(-c2nc(O)nc(-c3cccc(C4CC4)c3)n2)c1)C(F)(F)F` [Example 1-159], with 0.0007 µM.
To `CCCc1cccc(-c2nc(O)nc(-c3cc(CNC(=O)[C@@](C)(OC)C(F)(F)F)ccc3Cl)n2)c1` [Example 1-104] belongs 0.0015 µM.
Regarding `Cc1ccc(C#Cc2ccc(-c3nc(O)nc(-c4c(OCc5cccc(C)n5)cccc4C(F)(F)F)n3)cc2)cc1` [Example 2-127], the IC50 amounted to 0.0062 µM.
Then `CO[C@](C)(C(=O)NCc1ccc(Cl)c(-c2nc(O)nc(-c3ccc(OCC4CC4)cc3)n2)c1)C(F)(F)F` [Example 1-162], with 0.0012 µM; and `CCOc1cc(-c2nc(O)nc(-c3c(C)cccc3C)n2)ccc1Cl` [Example 2-52], with 0.1 µM; and `COC(C)(C)Cc1ccc(Cl)c(-c2nc(O)nc(-c3ccc(OCC(C)(C)C)cc3)n2)c1` [Example 1-215], with 0.452 µM.
To `Oc1nc(-c2ccc(OCC3CC3)cc2)nc(-c2c(Cl)cccc2OCc2ccccn2)n1` [Example 2-89] belongs 0.018 µM; to `Cc1cccc(COc2cccc(C(F)(F)F)c2-c2nc(O)nc(-c3ccc(C#Cc4ccc(F)cc4)cc3)n2)n1` [Example 2-117], 0.0047 µM; to `CSc1ccc(-c2nc(O)nc(-c3cc(CNC(=O)C(C)(C)C(F)(F)F)ccc3Cl)n2)cc1` [Example 1-115], 0.0006 µM.
Then `Cc1cccc(C)c1-c1nc(O)nc(-c2ccc(OCCC(C)C)cc2)n1` [Example 2-71], with 0.172 µM; and `CN(Cc1ccc(Cl)c(-c2nc(O)nc(-c3ccccc3)n2)c1)C(=O)C(C)(C)C` [Example 1-221], with 0.079 µM.
Consider `Cc1cccnc1COc1cccc(Cl)c1-c1nc(O)nc(-c2ccc(OCC(C)C)cc2)n1` [Example 2-72], for which the IC50 amounted to 0.283 µM.
To `CC(C)(C)C1CCC2(CC1)CN(Cc1ccc(Cl)c(-c3nc(O)nc(-c4ccccc4)n3)c1)C2=O` (single isomer, unassigned) [Example 1-266, 7-tert-butyl-2-[4-chloro-3-(4-hydroxy-6-phenyl-1,3,5-triazin-2-yl)benzyl]-2-azaspiro[3.5]nonan-1-one] belongs 0.011 µM; to `Cc1cccc(C)c1-c1nc(O)nc(-c2ccc(OCC3CCCCC3)cc2)n1` [Example 2-37], 0.041 µM.
`CC1(C)CCC(Oc2ccc(-c3nc(O)nc(-c4cc(CNC(=O)C(C)(C)C(F)(F)F)ccc4Cl)n3)cc2)CC1` [Example 1-179]: the IC50 is 0.016 µM.
Then `CC(=O)NCc1ccc(C)c(-c2nc(O)nc(-c3ccc(C(F)(F)F)cc3)n2)c1` [Example 1-47], with 0.043 µM.
To `CCO[C@@](C)(C(=O)NCc1ccc(Cl)c(-c2nc(O)nc(-c3ccccc3)n2)c1)C(F)(F)F` [Example 1-97] belongs 0.0091 µM; to `O=C(NCc1ccc(Cl)c(-c2nc(O)nc(-c3ccc(C(F)(F)F)cc3)n2)c1)C1CCCC1` [Example 1-30], 0.0006 µM; to `CCc1cc(-c2nc(O)nc(-c3cc(CNC(=O)C4(C(F)(F)F)CC4)ccc3Cl)n2)ccc1F` [Example 1-152], 0.0004 µM.
`CC(C)(C)COc1ccc(-c2nc(O)nc(-c3cc(CO)ccc3Cl)n2)cc1` [Example 1-187]: the IC50 was found to be 0.0053 µM. This IC50 lies about 13-fold higher than the previous one.
Take `N#Cc1cccc(OCc2ccccn2)c1-c1nc(O)nc(-c2ccc(C#Cc3ccccc3)cc2)n1` [Example 2-88]: the IC50 worked out at 0.002 µM.
